Data: patent US6762200B2, “Oxa(thia)zolidine derivative and anti-inflammatory drug” (Nippon Soda Co. Ltd., priority 2000, dated 2004)

Columns and labels:
[1] = tested on: acetic acid-induced writhes; assay: Acetic acid writhing; type: in vivo, ICR-strain male mouse; settings: i.p., 10 to 20 min after acetic acid
Experimental: This test was carried out referring to the method of Inoue, K., Motonaga, A. & Nishimura, T (Arzneimittel Forshung/Drug Research, 41 (1): 235-239 (1991)). More specifically, 7.5 mL/kg of 0.9% acetic acid solution was injected intraperitoneally into an ICR-strain male mouse (5 to 7 weeks old), and the induced writhes (characteristic behaviors of convulsive contracting the abdomen, twisting the body and/or extending the legs) were observed. Number of writhes of each mouse was measured during 10 to 20 min. period after acetic acid administration. The compound of the present invention was homogeneously suspended in 2% Tween 80/saline for injection use, and was injected intraperitoneally 30 min. before the induction by the acetic acid injection. Alternatively, the compound of the present invention was homogeneously suspended in 2% Tween 80/distilled water, and was administrated orally two hours before the induction by the acetic acid injection. The analgesic activity of the compounds according to the present invention was evaluated on the basis of the degree of inhibiting the number writhes by the administration of the compounds. As the positive control, indomethacin or aspirin was administrated. The analgesic activity of the compounds according to the present invention measured in this test were exemplified in Table 7.

[2] = tested on: picryl chloride-induced contact dermatitis (ear swelling); assay: Mouse delayed contact dermatitis induced by picryl chloride; settings: for Ear swelling after 24 hours Left (Not applied) (Mean ± S.E., mm): topical to right ear, non-treated left ear; for Ear swelling after 24 hours Right (Applied) (Mean ± S.E., mm): topical
Experimental: This pharmacological test was carried out referring to the method of Asherson, G. L. & Ptak, W. (Immunology, 15: 405-416 (1968).) and the method of Jun Hiroi (Folia Pharmacology of Japan, 86: 233-239 (1985).). More specifically, hairs on the abdomen of an ICR-strain male mouse were removed using an electric clip and an electric shaver. Then, 0.1 mL of 7% ether solution of picryl chloride (Tokyo Kasei Kogyo Co., Ltd., C 0307) was applied onto the abdomen for sensitization. On the sixth day after the sensitization, 20 μL/ear of 1% olive oil solution of picryl chloride was topically applied to the anterior and posterior surfaces of both ears of the mouse to induce contact dermatitis (first induction). Before and 24 hours after the induction, the thicknesses of the particular parts on the both ears were measured three times, respectively, using a digimatic micrometer (Mitsutoyo Co., Ltd.) to work out the average values. Ear edema of the both ears was respectively determined by subtracting the average thickness of the each ear before the induction from that on 24 hours after the induction, so that a grouping was carried out to separate the appropriate individuals. On the fourth day after the first induction, the hairs on the abdomen were removed again, and 0.1 mL of 7% ethanol solution of picryl chloride was applied thereto for additional sensitization. The contact dermatitis for evaluating activity was induced by re-applying 20 μL/ear of 1% olive oil solution of picryl chloride to the anterior and posterior surfaces of both ears (second induction) on the seventh day after the additional sensitization (on the […] day after the first sensitization). The activity of each compound of the present invention was evaluated as the inhibition on the contact dermatitis as compared with that of the vehicle applied control. That is, the thicknesses of the particular portions of the both ears were measured respectively three times with a digimatic micrometer to work out the mean values before, 24 hours and 48 hours after the second induction. Ear swelling was determined by subtracting the ear thickness before the second induction from that on 24 hours and 48 hours after the second induction, respectively. Topical application activity was evaluated by applying 25 μL of the acetone solution of the compound of the present invention similarly to the anterior and posterior surfaces of the right ear one hour before and 16 hours after the second induction. As the positive control, 0.02 mg/20 μL of acetone solution of Dexamethasone (hereinafter referred to as DEX, Wako Pure Chemical Industries Ltd., 047-18863) was applied similarly as for the compound of the present invention. With respect to the inhibitory activity in topical application tests, the topical activity was determined by the inhibition of the applied right ear edema, and the translocation and distribution property was determined by the activity onto the swelling of non-treated left ear. Oral administration activity was evaluated by administrating 0.5% methyl cellulose suspension of the compound of the present invention forcibly and perorally to the mouse an hour before and 16 hours after the second induction. As the positive control, 20 mg/kg of Prednisolone (Sigma Chemical Co., P 6004) suspension was administrated similarly as for the compounds of the present invention.

[3] = target: T1, IV-cPLA(2) (Homo sapiens, UniProt P47712); assay: PLA(2) activity, hydrolysis of bis-BODIPY FL C11-PC in activated U937 cells; type: cell-based
T1 sequence (P47712 1-749): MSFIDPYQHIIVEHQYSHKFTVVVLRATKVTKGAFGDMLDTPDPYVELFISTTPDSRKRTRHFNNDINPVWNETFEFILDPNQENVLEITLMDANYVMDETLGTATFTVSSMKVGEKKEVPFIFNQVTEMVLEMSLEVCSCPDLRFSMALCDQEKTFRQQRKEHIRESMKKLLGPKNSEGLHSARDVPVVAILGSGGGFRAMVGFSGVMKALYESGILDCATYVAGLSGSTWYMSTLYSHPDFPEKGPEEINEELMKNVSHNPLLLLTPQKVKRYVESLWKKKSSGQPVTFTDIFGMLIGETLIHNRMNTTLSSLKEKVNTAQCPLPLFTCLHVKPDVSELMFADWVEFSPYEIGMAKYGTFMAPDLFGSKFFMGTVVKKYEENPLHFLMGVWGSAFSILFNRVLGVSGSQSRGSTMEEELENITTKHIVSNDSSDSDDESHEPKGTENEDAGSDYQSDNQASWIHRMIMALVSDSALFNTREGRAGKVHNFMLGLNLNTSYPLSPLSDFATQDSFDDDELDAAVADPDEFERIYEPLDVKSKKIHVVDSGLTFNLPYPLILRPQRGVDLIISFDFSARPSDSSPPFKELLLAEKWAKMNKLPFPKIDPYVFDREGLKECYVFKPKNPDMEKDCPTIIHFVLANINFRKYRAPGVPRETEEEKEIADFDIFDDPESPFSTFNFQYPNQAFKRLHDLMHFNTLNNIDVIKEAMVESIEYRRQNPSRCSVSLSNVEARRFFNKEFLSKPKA
Experimental: The PLA(2) activity was measured by quantitatively analyzing the fluorescent product of hydrolysis from 1,2-bis-(4,4-difluoro-5,7-dimethyl-4-bora-3a,4a-diaza-s-indecene-3-undecanoyl)-sn-glycero-3-phosphocholine (hereinafter referred to bis-BODIPY®FL C11—PC, Molecular Probes, Inc., B-7701) using activated U937 cells (human monoblastic lymphoma cell line) by inflammatory stimulus (Meshulam, T. et al., The journal of Biological Chemistry 267 (30): 21465-21470 (1992); and Solito, E. et al., British Journal of Pharmacology 124: 1675-1683 (1998).). The substrate bis-BODIPY®FL C11—PC is incorporated into cellular membranes, the proximity of the BODIPY FL fluorophores on adjacent phospholipid acyl chains causes fluorescence self-quenching. Separation of the fluorophores upon hydrolytic cleavage of one of the acyl chains by PLA(1) or the PLA(2) results in increased fluorescence. In the activated U937 by inflammatory stimulus, it is shown that this substrate should be cleaved enzymatically by IV-cPLA(2) from the feature of its behaviors including sensitivity profiles against the inhibitors.
The human cell line U937 was purchased from Dai-Nippon Pharmaceuticals Co., Ltd. The cells were maintained by transferring every 3-4 days into RPMI 1640 medium (Sigma Chemical Co., R6504) supplemented with heat-inactivated 10% fetal bovine serum (Fetal Bovine Serum, Sigma Chemical Co., F 4135) in a 5% CO2 humidified atmosphere at 37° C. The cells were transferred into the culture medium described above, containing 1.2% (v/v) dimethylsulfoxide (hereinafter referred to as […], Nacalai tesque Co., Ltd., D 134-45), and pre-cultured for 96 to 120 hours so as to differentiate into the macrophage-like cells to be provided for the assay. The macrophage-like cells were collected and washed by centrifugation with the Assay medium (Dulbecco's phosphate buffered saline (hereinafter referred to as PBS)-2.2 mM glucose-2.5 μm albumin). Then, Phorbol 12-Myristate 13-Acetate (hereinafter referred to as TPA, Sigma Chemical Co., P 8139) was added to the Assay medium to be 1×10^−8M as the final concentration. Then, the macrophage-like cells were further cultured for an hour to be activated (Rzigalinski, B. A. & Rosenthal, M. D., Biochimica et Biophysica Acta 1223: 219-225 (1994); and Gonchar, M. V. et al., Biochemical and Biophysical Research Communication, 249: 829-832 (1998).).
For preparing substrate liposome suspension, bis-BODIPY®FL C11—PC was combined with phosphatidylcholine (Sigma Chemical Co., P 7769) at 1:9 molar ratio in chloroform, and dried under nitrogen flow. The dried mixture was suspended with the Assay medium at 100 μg/mL, voltexed and sonicated for an hour on ice under dark condition.
The test compound was dissolved with DMSO at 30 mM, and the solution diluted with either DMSO or the Assay medium before addition into the reaction mixture. The DMSO concentration in the reaction mixture was controlled so as to be no more than 0.1%. The 30-fold concentration of test compound solution was put into each well of MICRPTEST™ Tissue Culture Plate, 96 Well (Falcon, 3072) at a rate of 2.5 μL/well. To the respective well was added 25 μL/well of the activated U937 cell suspension ([…]), and the cells were pre-cultured for 120 min. at 37° C. in a 5% CO2 atmosphere incubator. 47.5 μL/well of the substrate liposome suspension with 1.5×10^−6M A23187 (Sigma Chemical Co., C 7522) was added into each well to prepare 75 μL/well of the total reaction mixture, followed by culture for 30 min. under the same conditions with shielding against light. 100 μL/well of 0.1% GEDTA (Dojindo Laboratories Co. Ltd., 348-01311) methanol solution was added into each well and mixed to stop the reaction. […]

[4] = tested on: TPA-induced ear edema; type: in vivo, ICR-strain male mouse; settings: topical, 1 mg/40 μL/ear × 2; 6 hours after TPA
Experimental: This test was carried out referring to the method of Carlson, R. P. et al. (Agents and Actions, 17(2): 197-204 (1985).) and the method of Chang, J. (European Journal of Pharmacology, 142: 197-205 (1987).). […] 6 hours later, the thickness of each ear at the particular part was respectively measured three times using a digimatic micrometer to calculate the mean value. Ear edema was determined by subtracting the mean thickness of the left ear as without treatment from that of the right ear as TPA-applied. […] As the positive control, 100 mg/kg of Hydrocortisone (Sigma Chemical Co., H 4001) suspension was applied to the mouse similarly as for the compound of the present invention.

CC(=O)Oc1ccccc1C(=O)O [Aspirin, aspirin, reference compound]
Number of writhes (Mean ± S.E.) ([1]; 30 mg/kg): 9.5 ± 2.0

COc1ccc2c(c1)c(CC(=O)O)c(C)n2C(=O)c1ccc(Cl)cc1 [Indomethacin, indomethacin, reference compound]
Number of writhes (Mean ± S.E.) ([1]; 3 mg/kg): 13.8 ± 3.0 | Number of writhes (Mean ± S.E.) ([1]; 10 mg/kg): 4.8 ± 0.9

CC(=O)N=C1SC(c2ccccc2)C(C)N1C(=O)NC1CCCCC1 (stereo not drawn) [Compound 1-43]
Ear swelling after 24 hours Left (Not applied) (Mean ± S.E., mm) ([2]; 1.5 mg/25 μL/ear × 2): 0.201 ± 0.008 mm | Ear swelling after 24 hours Right (Applied) (Mean ± S.E., mm) ([2]; 1.5 mg/25 μL/ear × 2): 0.196 ± 0.029 mm

CCN(CC)S(=O)(=O)NC(=O)N1C(=O)OC(c2ccc(C)cc2)C1C (stereo not drawn) [Compound 2-55]
Inhibition (%) ([3]; 0.1 μM): 94% | Ear Edema Inhibition (%) [4]: 54%

CC1C(c2ccccn2)OC(=O)N1C(=O)Nc1ccc(Cl)cc1 (stereo not drawn) [Compound 2-146]
Inhibition (%) ([3]; 0.1 μM): 85% | Ear Edema Inhibition (%) [4]: 80%

CC1C(c2ccc(Oc3ccccc3)cc2)OC(=O)N1C(=O)NC1CCCO1 (stereo not drawn) [Compound 2-128]
Inhibition (%) ([3]; 1 μM): 81% | Ear Edema Inhibition (%) [4]: 49%

CC1C(c2ccc(Cl)cc2)SC(=O)N1C(=S)NC1CCCCC1 (stereo not drawn) [Compound 2-194]
Inhibition (%) ([3]; 1 μM): 78% | Ear swelling after 24 hours Left (Not applied) (Mean ± S.E., mm) ([2]; 1.5 mg/25 μL/ear × 2): 0.226 ± 0.016 mm | Ear swelling after 24 hours Right (Applied) (Mean ± S.E., mm) ([2]; 1.5 mg/25 μL/ear × 2): 0.223 ± 0.010 mm

C[C@@H]1[C@@H](c2ccc(Cl)cc2)SC(=O)N1C(=O)NC1CCCCO1 (single isomer, unassigned) [Compound 2-246]
Inhibition (%) ([3]; 0.01 μM): 78% | Ear Edema Inhibition (%) [4]: 74%

Cc1ccc(C2OC(=O)N(C(=O)NS(=O)(=O)c3ccccc3C)C2C)cc1 (stereo not drawn) [Compound 2-60]
Inhibition (%) ([3]; 0.1 μM): 100% | Ear Edema Inhibition (%) [4]: 53%

CC1C(c2ccc3c(c2)CCC3)OC(=O)N1C(=O)NC1CCCCO1 (stereo not drawn) [Compound 2-127]
Inhibition (%) ([3]; 0.01 μM): 54% | Ear Edema Inhibition (%) [4]: 81%

CC1C(c2ccc(C(=O)OC(F)(F)F)cc2)SC(=O)N1C(=O)NC1CCCCO1 (stereo not drawn) [Compound 2-240]
Ear swelling after 24 hours Left (Not applied) (Mean ± S.E., mm) ([2]; 1.5 mg/25 μL/ear × 2): 0.238 ± 0.024 mm | Ear swelling after 24 hours Right (Applied) (Mean ± S.E., mm) ([2]; 1.5 mg/25 μL/ear × 2): 0.246 ± 0.009 mm

C[C@@H]1C[C@H]2[C@@H]3CCC4=CC(=O)C=C[C@]4(C)[C@@]3(F)[C@@H](O)C[C@]2(C)[C@@]1(O)C(=O)CO [DEX, Dexamethasone, reference compound]
Change in body weight 48 hours after induction (Mean ± S.E.) ([2]; 0.02 mg/ear × 2): -1.42 ± 0.20 g | Change in body weight 48 hours after induction (Mean ± S.E.) (%) ([2]; 0.02 mg/ear × 2): −4.30 ± 0.59% | General condition and body weight of mice ([2]; 48 hours after the second induction): generally bad symptoms and reducing their body weight significantly | Ear swelling after 24 hours Left (Not applied) (Mean ± S.E., mm) ([2]; dose 0.02 mg/ear × 2): −0.005 ± 0.033 mm | Ear swelling after 24 hours Right (Applied) (Mean ± S.E., mm) ([2]; dose 0.02 mg/ear × 2): 0.057 ± 0.009 mm
